According to ChEMBL document CHEMBL4622891, “Design, synthesis, and pharmacological evaluation of 2-(4-sulfonylphenyl)-2-[(E)-pyrrolidin-1-ylimino]-N-thiazoleacetamides as glucokinase activators” (Bioorg Med Chem Lett, 2020):

Molecular target: Voltage-gated inwardly rectifying potassium channel KCNH2 (Homo sapiens, UniProt Q12809)
Assay: Inhibition of human ERG

Sequence of Voltage-gated inwardly rectifying potassium channel KCNH2 (Q12809 whole entry): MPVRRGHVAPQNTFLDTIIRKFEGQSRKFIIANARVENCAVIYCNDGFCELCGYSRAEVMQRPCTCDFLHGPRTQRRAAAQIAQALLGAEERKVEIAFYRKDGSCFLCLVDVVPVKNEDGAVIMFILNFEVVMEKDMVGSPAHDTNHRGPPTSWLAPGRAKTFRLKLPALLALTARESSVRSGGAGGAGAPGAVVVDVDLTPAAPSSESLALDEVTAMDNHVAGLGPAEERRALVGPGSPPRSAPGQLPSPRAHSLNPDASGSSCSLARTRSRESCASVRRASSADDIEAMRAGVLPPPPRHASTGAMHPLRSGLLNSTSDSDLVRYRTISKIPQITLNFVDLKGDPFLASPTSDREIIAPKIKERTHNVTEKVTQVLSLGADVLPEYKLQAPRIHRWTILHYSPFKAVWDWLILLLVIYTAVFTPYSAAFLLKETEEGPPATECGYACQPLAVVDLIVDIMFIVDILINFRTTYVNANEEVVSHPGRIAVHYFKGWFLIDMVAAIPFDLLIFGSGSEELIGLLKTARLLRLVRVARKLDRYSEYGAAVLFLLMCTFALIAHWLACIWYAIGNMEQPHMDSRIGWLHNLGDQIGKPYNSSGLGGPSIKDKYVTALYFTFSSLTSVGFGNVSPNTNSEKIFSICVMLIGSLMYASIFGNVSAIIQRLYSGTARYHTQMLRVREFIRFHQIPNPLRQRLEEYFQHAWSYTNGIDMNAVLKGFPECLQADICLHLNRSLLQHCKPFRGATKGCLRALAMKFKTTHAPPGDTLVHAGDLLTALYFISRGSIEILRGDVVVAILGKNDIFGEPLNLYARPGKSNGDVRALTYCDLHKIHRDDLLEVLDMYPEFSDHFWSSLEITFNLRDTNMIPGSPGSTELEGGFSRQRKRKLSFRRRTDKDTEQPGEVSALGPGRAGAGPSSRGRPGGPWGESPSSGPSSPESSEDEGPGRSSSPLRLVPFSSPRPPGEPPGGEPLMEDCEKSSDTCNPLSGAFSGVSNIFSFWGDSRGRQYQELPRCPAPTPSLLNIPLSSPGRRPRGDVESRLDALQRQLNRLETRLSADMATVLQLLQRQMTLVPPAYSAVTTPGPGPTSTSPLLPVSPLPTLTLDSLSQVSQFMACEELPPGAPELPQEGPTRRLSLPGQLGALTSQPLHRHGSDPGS

Q: How did the IC50 turn out when `Cc1cnc(NC(=O)/C(=N/N2CCCC2)c2ccc(S(=O)(=O)C3CC3)cc2)s1` was run?
A: Its IC50 is greater than 100 µM.

Q: For `Cc1nnc(NC(=O)/C(=N/N2CCCC2)c2ccc(S(=O)(=O)C3CC3)cc2)s1`, which IC50 is on record?
A: Its IC50 is greater than 100 µM.

Q: `O=C(Nc1ncc(Cl)s1)/C(=N/N1CCCC1)c1ccc(S(=O)(=O)C2CC2)cc1` was tested. Which IC50 did it give?
A: Its IC50 is 16.7 µM.

Q: With `CC(=O)N1CCN(Cc2cnc(NC(=O)/C(=N/N3CCCC3)c3ccc(S(=O)(=O)C4CC4)cc3)s2)CC1` as the molecule, how does the IC50 read?
A: The IC50 was greater than 100 µM.

Q: `O=C(Nc1nccs1)/C(=N/N1CCCC1)c1ccc(S(=O)(=O)C2CC2)cc1` was tested. Which IC50 did it give?
A: Its IC50 is 17.5 µM.
